Patent US20230355597A1, “COMPOUNDS, COMPOSITIONS, AND METHODS FOR THE TREATMENT AND PREVENTION OF AVIAN PATHOGENIC E. COLI (APEC)” (OHIO STATE INNOVATION FOUNDATION, priority 2018, published 2023)
In brackets after ≈: the same amount, converted by molar mass. Like-named read-outs stand apart in the source and are kept apart here. Marks after values point to notes of the source that are not given here.

Tests used:
APEC O2-211 = type: cell-based, avian pathogenic Escherichia coli (APEC); settings: APEC O2-211, M63 media; MIC/MBC
APEC O78-53 = type: cell-based, avian pathogenic Escherichia coli (APEC); settings: APEC O78-53, M63 media; MIC/MBC
[1] = test system: intracellular APEC O2 in Caco-2 cells; assay: Intracellular survival assay (cidal SMs); settings: O2, Caco-2, 6 h treatment; superscript = multiple of MIC
Rif^r APEC O78 = assay: In vivo efficacy of growth inhibitors in APEC infected broiler chickens
APEC O2 = type: cell-based, avian pathogenic Escherichia coli (APEC); settings: APEC O2, M63 media; MIC/MBC
[2] = test system: biofilm embedded APEC O78; assay: MBEC High-throughput assay; type: cell-based, avian pathogenic Escherichia coli (APEC); settings: biofilm embedded APEC O78; superscript = multiple of MIC (footnote)
[3] = test system: intracellular APEC O78 in THP-1 cells; assay: Intracellular survival assay (cidal SMs); settings: O78, THP-1, 6 h treatment; superscript = multiple of MIC
APEC O1-63 = type: cell-based, avian pathogenic Escherichia coli (APEC); settings: APEC O1-63, M63 media; MIC/MBC
[4] = test system: intracellular APEC O1 in Caco-2 cells; assay: Intracellular survival assay (cidal SMs); settings: O1, Caco-2, 6 h treatment; superscript = multiple of MIC
APEC O78 [5] = assay: Loss of 260/280 nm absorbing materials assay; type: cell-based, avian pathogenic Escherichia coli (APEC); settings: 2X MBC, 1 h, *P<0.05 vs DMSO; for Absorbance 260: 260 nm absorbing material in supernatant; for Absorbance 280: 280 nm absorbing material in supernatant
APEC O35 = type: cell-based, avian pathogenic Escherichia coli (APEC); settings: APEC O35, M63 media; MIC/MBC
[6] = test system: intracellular APEC O1 in HD11 cells; assay: Intracellular survival assay (cidal SMs); settings: O1, HD11, 6 h treatment; superscript = multiple of MIC
APEC O8 = type: cell-based, avian pathogenic Escherichia coli (APEC); settings: APEC O8, M63 media; MIC/MBC
APEC O109 = type: cell-based, avian pathogenic Escherichia coli (APEC); settings: APEC O109, M63 media; MIC/MBC
APEC O1 = type: cell-based, avian pathogenic Escherichia coli (APEC); settings: APEC O1, M63 media; MIC/MBC
[7] = test system: intracellular APEC O2 in HD11 cells; assay: Intracellular survival assay (cidal SMs); settings: O2, HD11, 6 h treatment; superscript = multiple of MIC
[8] = test system: intracellular APEC O78 in Caco-2 cells; assay: Intracellular survival assay (cidal SMs); settings: O78, Caco-2, 6 h treatment; superscript = multiple of MIC
[9] = test system: intracellular APEC O1 in THP-1 cells; assay: Intracellular survival assay (cidal SMs); settings: O1, THP-1, 6 h treatment; superscript = multiple of MIC
APEC O78 [10] = assay: Confocal microscopy bacterial cytological profiling; type: cell-based, avian pathogenic Escherichia coli (APEC); settings: 2X MBC
Description: Confocal and scanning electron microscopy. Confocal microscopy was used for bacterial cytological profiling (BCP) to identify the cellular pathways targeted by SMs as described previously. […] After incubation, treated cultures were centrifuged, washed, and resuspended in 100 μL PBS. […] Cultures were then centrifuged, washed, and resuspended in PBS to 1⁄10th volume of the original cultures.

APEC O115 = type: cell-based, avian pathogenic Escherichia coli (APEC); settings: APEC O115, M63 media; MIC/MBC
APEC O78 [11] = type: cell-based, avian pathogenic Escherichia coli (APEC); settings: for MBC relative to MIC: APEC O78; for MBC / MIC: APEC O78, M63 media
[12] = test system: intracellular APEC O78 in HD11 cells; assay: Intracellular survival assay (cidal SMs); settings: O78, HD11, 6 h treatment; superscript = multiple of MIC
[13] = test system: Shiga toxin-producing (STEC) O157 and O26 strains; type: cell-based, E. coli; settings: 100 µM, M63 media
APEC O18 = type: cell-based, avian pathogenic Escherichia coli (APEC); settings: APEC O18, M63 media; MIC/MBC
APEC O15 = type: cell-based, avian pathogenic Escherichia coli (APEC); settings: APEC O15, M63 media; MIC/MBC
[14] = test system: intracellular APEC O2 in THP-1 cells; assay: Intracellular survival assay (cidal SMs); settings: O2, THP-1, 6 h treatment; superscript = multiple of MIC
[15] = cell prints MIC/MBC, listed as 1

CC1CCCN(CCC(=O)c2ccc(Br)cc2)C1.Cl (centres unmarked) [SM1]
MBC (APEC O2-211): 200 µM | MIC (APEC O2-211): 200 µM | MBC (APEC O78-53): 200 µM | MIC (APEC O78-53): 200 µM | SMs intracellular APEC clearance concentration [1]: >400 µM | reduction of average APEC load in internal organs (Rif^r APEC O78; average of liver, heart, lung and kidney, vs untreated control): either exacerbated or did not reduce | reduction of APEC induced mortality (Rif^r APEC O78; oral gavage twice a day, 5 days, untreated mortality (58.34%) normalized to 100%): 14.28% | reduction of APEC lesions severity (%), Air-sacs (airsacculitis) (Rif^r APEC O78; untreated control = 100%): -5.9% | reduction of APEC lesions severity (%), Heart (pericarditis) (Rif^r APEC O78; untreated control = 100%): 33.3% | reduction of APEC lesions severity (%), Liver (perihepatitis) (Rif^r APEC O78; untreated control = 100%): -20% | reduction of APEC load, Heart (Rif^r APEC O78; vs untreated control): -1.8 log CFU/g of tissues | reduction of APEC load, Kidney (Rif^r APEC O78; vs untreated control): -1.1 log CFU/g of tissues | reduction of APEC load, Liver (Rif^r APEC O78; vs untreated control): -2.0 log CFU/g of tissues | reduction of APEC load, Lung (Rif^r APEC O78; vs untreated control): -1.4 log CFU/g of tissues | Body weight gain (BWG) (Rif^r APEC O78; weight of live chickens before necropsy minus weight before treatment): 165.62±69.17 | MBC (APEC O2): 200 µM | MIC (APEC O2): 200 µM | MBEC [2]: 400^d µM | SMs intracellular APEC clearance concentration [3]: 200^a µM | MBC (APEC O1-63): 250 µM | MIC (APEC O1-63): 200 µM | SMs intracellular APEC clearance concentration [4]: >400 µM | Absorbance 260 (APEC O78 [5]): 4.00* | Absorbance 280 (APEC O78 [5]): 3.08* | MBC (APEC O35): 200 µM | MIC (APEC O35): 200 µM | SMs intracellular APEC clearance concentration [6]: 400^b µM | MBC (APEC O8): 200 µM | MIC (APEC O8): 200 µM | MBC (APEC O109): 200 µM | MIC (APEC O109): 200 µM | MBC (APEC O1): 250 µM | MIC (APEC O1): 200 µM | SMs intracellular APEC clearance concentration [7]: 200^a µM | SMs intracellular APEC clearance concentration [8]: 200^a µM | SMs intracellular APEC clearance concentration [9]: 400^b µM | cytological profile (confocal, FM4-64 / SYTO-9) (APEC O78 [10]): PG synthesis inhibitors | MBC (APEC O115): 200 µM | MIC (APEC O115): 200 µM | MBC relative to MIC (APEC O78 [11]): identical to MIC | MBC (APEC O78 [11]; cell prints MIC/MBC): 200 µM | MBC (APEC O78 [11]; [15]): 200 µM | MIC (APEC O78 [11]; [15]): 200 µM | SMs intracellular APEC clearance concentration [12]: 200^a µM | activity against STEC O157 and O26 strains [13]: not cidal | MBC (APEC O18): 200 µM | MIC (APEC O18): 200 µM | MBC (APEC O15): 250 µM | MIC (APEC O15): 200 µM | SMs intracellular APEC clearance concentration [14]: 200^a µM

COc1ccc(CCN(Cc2cc3c(cc2Cl)OCO3)CC2CCN(C)CC2)cc1 [SM11]
MBC (APEC O2-211): 100 µM (≈ 43.1 µg/mL) | MIC (APEC O2-211): 100 µM (≈ 43.1 µg/mL) | MBC (APEC O78-53): 200 µM (≈ 86.2 µg/mL) | MIC (APEC O78-53): 100 µM (≈ 43.1 µg/mL) | SMs intracellular APEC clearance concentration [1]: 200^b µM | MBC (APEC O2): 200 µM (≈ 86.2 µg/mL) | MIC (APEC O2): 100 µM (≈ 43.1 µg/mL) | MBEC [2]: 400^d µM | SMs intracellular APEC clearance concentration [3]: 100^a µM | MBC (APEC O1-63): 200 µM (≈ 86.2 µg/mL) | MIC (APEC O1-63): 100 µM (≈ 43.1 µg/mL) | SMs intracellular APEC clearance concentration [4]: >200 µM | Absorbance 260 (APEC O78 [5]): 4.00* | Absorbance 280 (APEC O78 [5]): 2.89* | MBC (APEC O35): 200 µM (≈ 86.2 µg/mL) | MIC (APEC O35): 100 µM (≈ 43.1 µg/mL) | SMs intracellular APEC clearance concentration [6]: 200^b µM | MBC (APEC O8): 200 µM (≈ 86.2 µg/mL) | MIC (APEC O8): 200 µM (≈ 86.2 µg/mL) | MBC (APEC O109): 200 µM (≈ 86.2 µg/mL) | MIC (APEC O109): 200 µM (≈ 86.2 µg/mL) | MBC (APEC O1): 100 µM (≈ 43.1 µg/mL) | MIC (APEC O1): 100 µM (≈ 43.1 µg/mL) | SMs intracellular APEC clearance concentration [7]: 200^b µM | SMs intracellular APEC clearance concentration [8]: 100^a µM | SMs intracellular APEC clearance concentration [9]: >200 µM | cytological profile (confocal, FM4-64 / SYTO-9) (APEC O78 [10]): membrane pore formers | MBC (APEC O115): 200 µM (≈ 86.2 µg/mL) | MIC (APEC O115): 200 µM (≈ 86.2 µg/mL) | MBC relative to MIC (APEC O78 [11]): identical to MIC | MIC (APEC O78 [11]; MIC/MBC): 100 µM (≈ 43.1 µg/mL) | MBC (APEC O78 [11]; cell prints MIC/MBC): 100 µM (≈ 43.1 µg/mL) | SMs intracellular APEC clearance concentration [12]: 100^a µM | activity against STEC O157 and O26 strains [13]: not cidal | MBC (APEC O18): 200 µM (≈ 86.2 µg/mL) | MIC (APEC O18): 200 µM (≈ 86.2 µg/mL) | MBC (APEC O15): 100 µM (≈ 43.1 µg/mL) | MIC (APEC O15): 100 µM (≈ 43.1 µg/mL) | SMs intracellular APEC clearance concentration [14]: 100^a µM
